Assay results reported in US10906888B2, “Pyrimidine carboxamides as inhibitors of Vanin-1 enzyme” (Pfizer Inc., priority 2016, dated 2021).

Assays:
[1] = target: human vanin-1 (Homo sapiens (Human), UniProt O95497); assay: Human Vanin-1 Enzyme Assay 1; type: biochemical; conditions: 25 pM human vanin-1, 50 uM pantetheine 7-amino-4-trifluoromethylcoumarin substrate
Protocol: Human Vanin-1Enzyme Assay 1.
The in vitro assay measures enzymatic cleavage of the fluorescently-labeled vanin substrate, pantetheine 7-amino-4-trifluoromethylcoumarin, by human vanin-1.
The vanin-1 protein was prepared in-house from a construct expressing the extracellular domain of human vanin-1 (GenBank ID NM_004666) preceded N-terminally by the honey bee melittin signal peptide, a GSG linker sequence, a His6× tag and a FLAG tag. The secreted, soluble enzyme was purified from the conditioned medium from a CHO cell line stably expressing the resulting protein. Enzyme purification was performed through sequential Ni NTA and size-exclusion chromatography steps.
Intermediate concentrations were prepared by diluting in DMSO in a four-fold series for a total of 11 data points.
To begin the assay 100 nL was transferred from the compound plate to the assay plate. Next, 15 μL of the vanin-1 working solution were transferred to the assay plate. The inhibitor and enzyme were incubated at room temperature for 30 minutes. The enzyme reaction was then initiated by the addition of 5 μL of 200 μM pantetheine 7-amino-4-trifluoromethylcoumarin prepared in assay buffer. […] The final concentration of DMSO was 0.5%.

[2] = target: human vanin-1 present in human plasma (Homo sapiens (Human), UniProt O95497); assay: Vanin-1 in Human Plasma Assay; type: biochemical; conditions: 50% pooled human plasma, 50 uM substrate
Protocol: Vanin-1 in Human Plasma Assay.
The in vitro assay measures enzymatic cleavage of the fluorescently-labeled vanin substrate, pantetheine 7-amino-4-trifluoromethylcoumarin, by human vanin-1 present in human plasma.
Human plasma was prepared from whole blood drawn from healthy donors, collected in tubes containing sodium heparin. The plasma fractions were separated from the whole blood by centrifugation for 10 minutes at 2000×g and pooled.
The test inhibitors were solubilized in DMSO to a stock concentration of 30 mM. On the day of the assay, dose response plates were prepared by diluting the inhibitors in DMSO to a compound concentration 200-fold the final in-assay concentration. Concentration series were prepared by serially diluting in 100% DMSO in a three-fold series. […] From this intermediate compound plate, 10 μL were transferred to the assay plate and mixed with 20 uL of the pooled human plasma. The inhibitor and enzyme were co-incubated at room temperature for 30 minutes. The enzyme reaction was initiated by the addition of 10 μL of 200 uM pantetheine 7-amino-4-trifluoromethylcoumarin prepared in assay buffer. The final concentrations in the assay were 50% plasma, and 50 uM substrate. The final concentration of DMSO was 0.5%. Datapoints were measured over time using a Tecan Safire 2 platereader at 405 nm excitation wavelength and a 510 nm emission wavelength for detection.

Sequence of human vanin-1 present in human plasma (O95497 22-491): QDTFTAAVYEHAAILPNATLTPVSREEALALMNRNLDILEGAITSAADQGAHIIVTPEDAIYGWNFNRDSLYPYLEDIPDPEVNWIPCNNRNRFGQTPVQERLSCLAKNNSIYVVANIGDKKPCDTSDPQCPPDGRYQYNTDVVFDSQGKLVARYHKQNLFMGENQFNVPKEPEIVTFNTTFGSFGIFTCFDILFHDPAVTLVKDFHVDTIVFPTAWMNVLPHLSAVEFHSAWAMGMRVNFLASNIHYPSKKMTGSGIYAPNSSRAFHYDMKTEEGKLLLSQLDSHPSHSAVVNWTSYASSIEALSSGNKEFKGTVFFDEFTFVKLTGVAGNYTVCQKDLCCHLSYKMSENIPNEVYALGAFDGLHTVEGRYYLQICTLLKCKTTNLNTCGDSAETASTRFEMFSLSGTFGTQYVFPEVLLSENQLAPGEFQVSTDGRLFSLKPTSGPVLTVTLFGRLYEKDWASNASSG
Sequence of human vanin-1 (O95497 22-491): as above

O=C(c1cnc(NC2(c3cncnc3)CC2)nc1)N1CCC(C(F)(F)F)C1 (single isomer, unassigned) [Example 193] was tested, and the IC50 [1] was 7.12 nM and the IC50 [2] was 5.39 nM.
For N#CC1CCCN(C(=O)c2cnc(NC3(c4cncnc4)CC3)nc2)C1 (single isomer, unassigned) [Example 196], the IC50 [1] was 1180 nM and the IC50 [2] was over 793 nM.
In the case of CS(=O)(=O)C1CCCN(C(=O)c2cnc(NC3(c4cncnc4)CC3)nc2)C1 (single isomer, unassigned) [Example 200], the IC50 [1] is reported as 10.6 nM and the IC50 [2] is reported as 32.6 nM.
Work on O=C(c1cnc(NC2(c3cncnc3)CC2)nc1)N1CCC2(CC1)COC2 [Example 59] yielded an IC50 [1] of 47.4 nM and an IC50 [2] of 49.2 nM.
For O=C(c1cnc(NC2(c3cncnc3)CC2)nc1)N1CCCC(F)(F)C1 [Example 70], the IC50 [1] was 175 nM and the IC50 [2] was 205 nM.
O=C(c1cnc(NC2(c3cncnc3)CC2)nc1)N1CCCC1 [Example 87] was tested, and the IC50 [1] was 79.8 nM and the IC50 [2] was 68 nM.
Work on COC1CCCN(C(=O)c2cnc(NC3(c4cncnc4)CC3)nc2)C1 (stereo not drawn) [Example 96] yielded an IC50 [1] of 10.9 nM and an IC50 [2] of 9.86 nM.
Molecule CC1(CO)CCCN(C(=O)c2cnc(NC3(c4cncnc4)CC3)nc2)C1 (stereo not drawn) [Example 108] has an IC50 [1] of 387 nM and an IC50 [2] of 452 nM.
Molecule O=C(c1cnc(NC2(c3cnccn3)CCC2)nc1)N1CCC2(CCOCC2)C1 [Example 130, 8-oxa-2-azaspiro[4.5]dec-2-yl(2-{[1-(pyrazin-2-yl)cyclobutyl]amino}pyrimidin-5-yl)methanone] has an IC50 [1] of under 0.041 nM and an IC50 [2] of 0.743 nM.
CC(C)(Nc1ncc(C(=O)N2CC3(CCOCC3)C2)cn1)c1cnccn1 [Example 131, 7-oxa-2-azaspiro[3.5]non-2-yl(2-{[2-(pyrazin-2-yl)propan-2-yl]amino}pyrimidin-5-yl)methanone] showed an IC50 [1] of under 0.094 nM and an IC50 [2] of 0.838 nM.
In the case of O=C(c1cnc(NC2(c3cncnc3)COC2)nc1)N1CCC2(CCOCC2)C1 [Example 133], the IC50 [1] is reported as 0.43 nM and the IC50 [2] is reported as 0.524 nM.
In the case of O=C(c1cnc(NCc2cnccn2)nc1)N1CC2(CCOCC2)C1 [Example 135], the IC50 [1] is reported as 3.38 nM and the IC50 [2] is reported as 3.7 nM.
With Cc1ccc(CNc2ncc(C(=O)N3CCC4(CCOCC4)C3)cn2)cn1 [Example 137] the IC50 [1] was 5.24 nM and the IC50 [2] was 5.02 nM.
In the case of Cc1ccc([C@H](C)Nc2ncc(C(=O)N3CCC4(CCOCC4)C3)cn2)cn1 [Example 140], the IC50 [1] is reported as 0.283 nM and the IC50 [2] is reported as 0.95 nM.
Work on CC(C)(Nc1ncc(C(=O)N2CCC3(CCOCC3)C2)cn1)c1cncnc1 [Example 143, 8-oxa-2-azaspiro[4.5]dec-2-yl(2-{[2-(pyrimidin-5-yl)propan-2-yl]amino}pyrimidin-5-yl)methanone] yielded an IC50 [1] of 0.082 nM and an IC50 [2] of 1.22 nM.
Work on C[C@H](Nc1ncc(C(=O)N2CC3(CCOCC3)C2)cn1)c1cnccn1 [Example 147] yielded an IC50 [1] of 0.65 nM and an IC50 [2] of 1.89 nM.
With C[C@H](Nc1ncc(C(=O)N2CCC3(CCOCC3)C2)cn1)c1cncnc1 [Example 149] the IC50 [1] was 0.677 nM and the IC50 [2] was 1.3 nM.
C[C@@H](Nc1ncc(C(=O)N2CCC3(CCOCC3)C2)cn1)c1cncnc1 [Example 150] showed an IC50 [1] of 27.8 nM and an IC50 [2] of 35.6 nM.
With C[C@H](Nc1ncc(C(=O)N2CCC3(CCOCC3)C2)cn1)c1ccncn1 [Example 155] the IC50 [1] was 4.39 nM and the IC50 [2] was 27.5 nM.
Molecule O=C(c1cnc(NC2(c3cnccn3)CC2)nc1)N1CCC2(CCOCC2)C1 [Example 157] has an IC50 [1] of 0.875 nM and an IC50 [2] of 12.9 nM.
O=C(c1cnc(NC2(c3cnccn3)CC2)nc1)N1CC2(CCOCC2)C1 [Example 158] showed an IC50 [1] of 1.11 nM and an IC50 [2] of 2.03 nM.
Cc1ccc(C(C)Nc2ncc(C(=O)N3CCC4(CCOCC4)C3)cn2)cn1 (stereo not drawn) [Example 162] showed an IC50 [1] of 0.629 nM and an IC50 [2] of 2.97 nM.
With O=C(c1cnc(NCc2cncnc2C(F)(F)F)nc1)N1CCC2(CCOCC2)C1 [Example 166] the IC50 [1] was 32.6 nM and the IC50 [2] was 39.1 nM.
Cc1ncc(CNc2ncc(C(=O)N3CCC4(CCOCC4)C3)cn2)cn1 [Example 170] was tested, and the IC50 [1] was 6.33 nM and the IC50 [2] was 16.5 nM.
Cc1ccc(CNc2ncc(C(=O)N3CC4(CCOCC4)C3)cn2)cn1 [Example 172] was tested, and the IC50 [1] was 4.53 nM and the IC50 [2] was 17.4 nM.
O=C(c1cnc(NC2(c3cncnc3)CCC2)nc1)N1CCC2(CCOCC2)C1 [Example 173] showed an IC50 [1] of 0.116 nM and an IC50 [2] of 1.61 nM.
O=C(c1cnc(NC2(c3cncnc3)CCC2)nc1)N1CC2(CCOCC2)C1 [Example 174] was tested, and the IC50 [1] was 0.293 nM and the IC50 [2] was 0.905 nM.
O=C(c1cnc(NC2(c3ncccn3)CC2)nc1)N1CC2(CCOCC2)C1 [Example 179] showed an IC50 [1] of 7.33 nM and an IC50 [2] of 14.4 nM.
Molecule CC(C)(Nc1ncc(C(=O)N2CCC3(CCOCC3)C2)cn1)c1cnccn1 [Example 182, 8-oxa-2-azaspiro[4.5]dec-2-yl(2-{[2-(pyrazin-2-yl)propan-2-yl]amino}pyrimidin-5-yl)methanone] has an IC50 [1] of 0.062 nM and an IC50 [2] of 1.08 nM.
CC(Nc1ncc(C(=O)N2CC3(CCOCC3)C2)cn1)c1cncnc1 (stereo not drawn) [Example 184] gave an IC50 [1] of 1.45 nM and an IC50 [2] of 2.21 nM.
O=C(c1cnc(NCc2cncnc2)nc1)N1CC2(CCOCC2)C1 [Example 186] gave an IC50 [1] of 5.48 nM and an IC50 [2] of 4.63 nM.
O=C(c1cnc(NC2(c3cncnc3)CC2)nc1)N1CCC2(CCOCC2)C1 [Example 188, 8-oxa-2-azaspiro[4.5]dec-2-yl(2-{[1-(pyrimidin-5-yl)cyclopropyl]amino}pyrimidin-5-yl)methanone] showed an IC50 [1] of 0.277 nM and an IC50 [2] of 1.17 nM.
O=C(c1cnc(NC2(c3cncnc3)CC2)nc1)N1CCCCC1 [Example 190] showed an IC50 [1] of 12.5 nM and an IC50 [2] of 12.4 nM.
Molecule CCC1(OC)CCN(C(=O)c2cnc(NC3(c4cncnc4)CC3)nc2)C1 (stereo not drawn) [Example 192] has an IC50 [1] of 2.21 nM.
With N#CC1CCCN(C(=O)c2cnc(NC3(c4cncnc4)CC3)nc2)C1 (stereo not drawn) [Example 195] the IC50 [1] was 10.7 nM.
Work on CS(=O)(=O)C1CCCN(C(=O)c2cnc(NC3(c4cncnc4)CC3)nc2)C1 (stereo not drawn) [Example 198] yielded an IC50 [1] of 20.5 nM.
For O=C(c1cnc(OCc2cncnc2)nc1)N1CCC2(CCOCC2)C1 [Example 203, 8-oxa-2-azaspiro[4.5]dec-2-yl[2-(pyrimidin-5-ylmethoxy)pyrimidin-5-yl]methanone], the IC50 [1] was 1090 nM.
O=C(Nc1ncc(C(=O)N2CCC3(CCOCC3)C2)cn1)c1cnccn1 [Example 204, N-[5-(8-oxa-2-azaspiro[4.5]dec-2-ylcarbonyl)pyrimidin-2-yl]pyrazine-2-carboxamide] showed an IC50 [1] of 5160 nM.
Work on O=C(Nc1ncc(C(=O)N2CCC3(CCOCC3)C2)cn1)c1cncnc1 [Example 205, N-[5-(8-oxa-2-azaspiro[4.5]dec-2-ylcarbonyl)pyrimidin-2-yl]pyrimidine-5-carboxamide] yielded an IC50 [1] of 8800 nM.
